Patent US20100297047A1, “ESTERS OF GLYCEROL AND THEIR USES IN COSMETIC AND PHARMACEUTICAL APPLICATIONS” (BIOPHIL ITALIA S.P.A., priority 2007, published 2010)

Experiment: Solubilisation of poorly soluble active ingredients in the Olea europea triglycerides/diglycerides mixture
Type: physicochemical
From the text: Improved formulations have been prepared by solubilising lipophilic ingredients, which are known for their interesting cosmetic activity but also for their difficult usage due to their poor solubility and/or dispersion into common cosmetic matrixes.
Ceramides are major components (roughly 40%) of the lipidic layers of the epidermis barrier, which drive the balance between hydration and loss of water, having the important role of “cement” between the corneocytes, i.e. the brick cells forming the dermal layers. The high difficulty for the application of ceramides in cosmetics is their poor solubility: in order to solubilise them into esters, a heating step above 90° C. is normally required with possible damage of the ceramides.
The use of triglycerides/diglycerides mixture as a solubiliser has allowed the solubilisation of ceramide-3 also at high concentration (up to 50%) without excessive and long time heating steps, A liquid ingredient, easy to use by simple addition into the lipid phase of the cosmetic formulation, has been obtained so far.
Sericin is one of the two families of proteins constituting the pure silk secreted by the silkworm glands: its dimensions vary from 60 up to 500 kDa. […]

Molecule	concentration at which ceramide-3 is solubilised (triglycerides/diglycerides mixture as solubiliser, without excessive and long time heating steps)	dissolution of high molecular weight sericin (in mixtures of triglycerides/diglycerides from olive, compared with other commonly used vehicles or solubilisers)
CCCCCCCCCCCCCCCCCC(=O)N[C@@H](CO)[C@H](O)[C@H](O)CCCCCCCCCCCCCC [ceramide-3]	up to 50%	
sericin		successfully dissolved
